Measurements from patent US10117430B2, “Malononitrile compounds for controlling animal pests” (BASF SE, priority 2012, dated 2018).

Key:
Type in all cases: in vivo
[1] = test system: Cowpea Aphid (Aphis craccivora); experiment: B.1 Cowpea aphid spray test on potted cowpea plants; conditions: in comparison with untreated controls, population reduction assessed after 24, 72 and 120 hours
Protocol: B.1 Cowpea Aphid (Aphis craccivora)
The active compounds were formulated in 50:50 (v/v) acetone:water. The test solution was prepared at the day of use. Potted cowpea plants colonized with approximately 100-150 aphids of various stages were sprayed after the pest population has been recorded. Population reduction was assessed after 24, 72, and 120 hours.

[2] = test system: Silverleaf Whitefly (Bemisia argentifolii); experiment: B.5 Silverleaf whitefly test on sprayed cotton plants; conditions: 72 h, in comparison with untreated controls, 3 days after treatment
Protocol: B.5 Silverleaf Whitefly (Bemisia argentifolii)
The active compounds were formulated in cyclohexanone as a 10,000 ppm solution supplied in 1.3 ml ABgene® tubes. These tubes were inserted into an automated electrostatic sprayer equipped with an atomizing nozzle and they served as stock solutions for which lower dilutions were made in 50% acetone:50% water (v/v). A nonionic surfactant (Kinetic®) was included in the solution at a volume of 0.01% (v/v). Cotton plants at the cotyledon stage (one plant per pot) were sprayed by an automated electrostatic plant sprayer equipped with an atomizing spray nozzle. The plants were dried in the sprayer fume hood and then removed from the sprayer. Each pot was placed into a plastic cup and 10 to 12 whitefly adults (approximately 3-5 days old) were introduced. The insects were collected using an aspirator and 0.6 cm, nontoxic Tygon® tubing (R-3603) connected to a barrier pipette tip. The tip, containing the collected insects, was then gently inserted into the soil containing the treated plant, allowing insects to crawl out of the tip to reach the foliage for feeding. Cups were covered with a reusable screened lid (150-micron mesh polyester screen PeCap from Tetko, Inc.). Test plants were maintained in a growth room at 25° C. and 20-40% relative humidity for 3 days, avoiding direct exposure to fluorescent light (24 hour photoperiod) to prevent trapping of heat inside the cup. Mortality was assessed 3 days after treatment, compared to untreated control plants.

[3] = test system: Green Soldier Stink Bug (Nezara viridula); experiment: B.15 Green soldier stink bug test on sprayed soybean pods; conditions: 120 h, in comparison with untreated controls, after 5 days
Protocol: B.15 Green Soldier Stink Bug (Nezara viridula)
The active compound is dissolved at the desired concentration in a mixture of 1:1 (vol:vol) distilled water:aceteone. Surfactant (Kinetic HV) is added at a rate of 0.01% (vol/vol). The test solution is prepared at the day of use. Soybean pods were placed in microwavable plastic cups lined with moist filter paper and inoculated with ten 3rd instar N. viridula. Using a hand atomizer, an approximately 2 ml solution is sprayed into each cup. Treated cups were kept at about 28-29° C. and relative humidity of about 50-60%. Percent mortality was recorded after 5 days.

[4] = test system: Boll Weevil (Anthonomus grandis); experiment: B.9 Boll weevil microtiter diet test, egg and larval mortality; conditions: 120 h, in comparison with untreated controls, egg and larval mortality after 5 days
Protocol: B.9 Boll Weevil (Anthonomus grandis)
(§1) For evaluating control of boll weevil (Anthonomus grandis) the test unit consisted of 24-well-microtiter plates containing an insect diet and 20-30 A. grandis eggs. The compounds were formulated using a solution containing 75% v/v water and 25% v/v DMSO. Different concentrations of formulated compounds were sprayed onto the insect diet at 20 μl, using a custom built micro atomizer, at two replications. After application, microtiter plates were incubated at about 23±1° C. and about 50±5% relative humidity for 5 days. Egg and larval mortality was then visually assessed.

[5] = test system: Green Peach Aphid (Myzus persicae); experiment: B.3 Green peach aphid systemic test, artificial diet under membrane; conditions: 72 h, concentration of the test solution 2500 mg/L, 3 days
Excerpt: B.3 Green Peach Aphid (Myzus persicae)
For evaluating control of green peach aphid (Myzus persicae) through systemic means the test unit consisted of 96-well-microtiter plates containing liquid artificial diet under an artificial membrane. The compounds were formulated using a solution containing 75% v/v water and 25% v/v DMSO. Different concentrations of formulated compounds were pipetted into the aphid diet, using a custom built pipetter, at two replications. After application, 5-8 adult aphids were placed on the artificial membrane inside the microtiter plate wells. The aphids were then allowed to suck on the treated aphid diet and incubated at about 23±1° C. and about 50±5% relative humidity for 3 days. Aphid mortality and fecundity was then visually assessed.

[6] = test system: Rice brown plant hopper (Nilaparvata lugens); experiment: B.11 Rice brown plant hopper test on sprayed rice seedlings; conditions: in comparison with untreated controls, after 72 hours
Protocol: B.11 Rice brown plant hopper (Nilaparvata lugens)
Rice seedlings were cleaned and washed 24 hours before spraying. The active compounds were formulated in 50:50 acetone:water (vol:vol) and 0.1% vol/vol surfactant (EL 620) was added. Potted rice seedlings were sprayed with 5 ml test solution, air dried, placed in cages and inoculated with 10 adults. Treated rice plants were kept at about 28-29° C. and relative humidity of about 50-60%. Percent mortality was recorded after 72 hours.

[7] = test system: Orchid Thrips (Dichromothrips corbetti); experiment: B.4 Orchid thrips floral-immersion test; conditions: 96 h, in comparison with untreated controls, after 4 days
Protocol: B.4 Orchid Thrips (Dichromothrips Corbetti)
Dichromothrips corbetti adults used for bioassay are obtained from a colony maintained continuously under laboratory conditions. For testing purposes, the test compound is diluted to a concentration of 300 ppm (wt compound: vol diluent) in a 1:1 mixture of acetone:water (vol:vol), plus 0.01% vol/vol Kinetic® surfactant. Thrips potency of each compound is evaluated by using a floral-immersion technique. Plastic petri dishes are used as test arenas. All petals of individual, intact orchid flowers are dipped into treatment solution and allowed to dry. Treated flowers are placed into individual petri dishes along with 10-15 adult thrips. The petri dishes are then covered with lids. All test arenas are held under continuous light and a temperature of about 28° C. for duration of the assay. After 4 days, the numbers of live thrips are counted on each flower, and along inner walls of each petri dish. The level of thrips mortality is extrapolated from pre-treatment thrips numbers.

[8] = test system: Vetch Aphid (Megoura viciae); experiment: B.7 Vetch aphid test on broad bean leaf disks; conditions: foliar, 120 h, in comparison with untreated controls, 5 days
Protocol: B.7 Vetch Aphid (Megoura viciae)
For evaluating control of vetch aphid (Megoura viciae) through contact or systemic means the test unit consisted of 24-well-microtiter plates containing broad bean leaf disks. The compounds were formulated using a solution containing 75% v/v water and 25% v/v DMSO. Different concentrations of formulated compounds were sprayed onto the leaf disks at 2.5 μl, using a custom built micro atomizer, at two replications. After application, the leaf disks were air-dried and 5-8 adult aphids placed on the leaf disks inside the microtiter plate wells. The aphids were then allowed to suck on the treated leaf disks and incubated at about 23±1° C. and about 50±5% relative humidity for 5 days. Aphid mortality and fecundity was then visually assessed.

[9] = test system: Yellow Fever Mosquito (Aedes aegypti); experiment: whole plant or invertebrate; conditions: 48 h, in comparison with untreated controls, larval mortality after 2 days
Protocol: B.12 Yellow Fever Mosquito (Aedes aegypti)
For evaluating control of yellow fever mosquito (Aedes aegypti) the test unit consisted of 96-well-microtiter plates containing 200 μl of tap water per well and 5-15 freshly hatched A. aegypti larvae. The compounds or mixtures were formulated using a solution containing 75% water and 25% DMSO. Different concentrations of formulated compounds or mixtures were sprayed onto the insect diet at 2.5 μl, using a custom built micro atomizer, at two replications. After application, microtiter plates were incubated at 28±1° C., 80±5% relative humidity for 2 days. Larval mortality was then visually assessed.

[10] = test system: Red Spider Mite (Tetranychus kanzawai); experiment: B.10 Red spider mite test on sprayed cowpea beans; conditions: in comparison with untreated controls, 72 hours after treatment
Protocol: B.10 Red Spider Mite (Tetranychus kanzawai)
The active compound is dissolved at the desired concentration in a mixture of 1:1 (vol:vol) distilled water:acetone. Add surfactant (Alkamuls® EL 620) at the rate of 0.1% (vol/vol). The test solution is prepared at the day of use. Potted cowpea beans of 7-10 days of age were cleaned with tap water and sprayed with 5 ml of the test solution using air driven hand atomizer. The treated plants were allowed to air dry and afterwards inculated with 20 or more mites by clipping a cassava leaf section with known mite population. Treated plants were placed inside a holding room at about 25-27° C. and about 50-60% relative humidity. Percent mortality was assessed 72 hours after treatment.

[11] = test system: Southern Armyworm (Spodoptera eridania); experiment: B.6 Southern armyworm test on sprayed lima bean plants; conditions: 96 h, in comparison with untreated controls, 4 days after treatment
Protocol: B.6 Southern Armyworm (Spodoptera eridania)
The active compounds were formulated in cyclohexanone as a 10,000 ppm solution supplied in 1.3 ml ABgene® tubes. These tubes were inserted into an automated electrostatic sprayer equipped with an atomizing nozzle and they served as stock solutions for which lower dilutions were made in 50% acetone:50% water (v/v). A nonionic surfactant (Kinetic®) was included in the solution at a volume of 0.01% (v/v). Lima bean plants (variety Sieva) were grown 2 plants to a pot and selected for treatment at the 1st true leaf stage. Test solutions were sprayed onto the foliage by an automated electrostatic plant sprayer equipped with an atomizing spray nozzle. The plants were dried in the sprayer fume hood and then removed from the sprayer. Each pot was placed into perforated plastic bags with a zip closure. Ten to 11 armyworm larvae were placed into the bag and the bags zipped closed. Test plants were maintained in a growth room at 25° C. and 20-40% relative humidity for 4 days, avoiding direct exposure to fluorescent light (24 hour photoperiod) to prevent trapping of heat inside the bags. Mortality and reduced feeding were assessed 4 days after treatment, compared to untreated control plants.

[12] = test system: Mediterranean Fruitfly (Ceratitis capitata); experiment: B.2 Mediterranean fruitfly microtiter diet test, egg and larval mortality; conditions: 120 h, in comparison with untreated controls, egg and larval mortality after 5 days
Protocol: B.2 Mediterranean Fruitfly (Ceratitis capitata)
as §1, with “Mediterranean fruitfly (Ceratitis capitata)” for “boll weevil (Anthonomus grandis)”, “microtiter” for “24-well-microtiter”, “50-80 C. capitata” for “20-30 A. grandis”, “5” for “20”, “28±1°” for “23±1°”, “80±5%” for “50±5%”

N#CC(C#N)(Cc1ccc(C(F)(F)F)cn1)c1ccccc1 [II-4]
≥ 75%: mortality at 500 ppm [1] | mortality at 500 ppm [2] | mortality at 500 ppm [3] | mortality at 2500 ppm [4] | mortality at 2500 µg/mL [5] | mortality at 300 ppm [6] | mortality at 500 ppm [7] | mortality at 2500 ppm [8] | mortality at 2500 ppm [9]

CC(c1ccc(F)cn1)C(C#N)(C#N)c1ccc(F)cc1 (stereo not shown) [II-9]
≥ 75%: mortality at 500 ppm [2] | mortality at 2500 ppm [4] | mortality at 2500 µg/mL [5] | mortality at 500 ppm [10] | mortality at 300 ppm [6] | mortality at 2500 ppm [9]

N#CC(C#N)(Cc1ccc(C(F)(F)F)nn1)c1ccc(F)cc1 [II-14]
≥ 75%: mortality at 500 ppm [1] | mortality at 500 ppm [11] | mortality at 2500 ppm [4] | mortality at 2500 µg/mL [5]

N#CC(C#N)(Cc1ncc(C(F)(F)F)cn1)c1ccc(F)cc1 [II-17]
≥ 75%: mortality at 500 ppm [1] | mortality at 500 ppm [11] | mortality at 500 ppm [2] | mortality at 2500 ppm [4] | mortality at 500 ppm [7] | mortality at 2500 ppm [8] | mortality at 2500 ppm [9]

N#CC(C#N)(Cc1ccc(C(F)(F)F)nc1)c1cccc(F)c1 [II-19]
≥ 75%: mortality at 500 ppm [1] | mortality at 300 ppm [11] | mortality at 500 ppm [2] | mortality at 500 ppm [3] | mortality at 2500 ppm [4] | mortality at 2500 ppm [12] | mortality at 500 ppm [7] | mortality at 2500 ppm [8] | mortality at 2500 ppm [9]

N#CC(C#N)(Cc1cnc(C(F)(F)F)nc1)c1cccc(F)c1 [II-21]
≥ 75%: mortality at 500 ppm [1] | mortality at 500 ppm [2] | mortality at 500 ppm [3] | mortality at 2500 ppm [4] | mortality at 300 ppm [6] | mortality at 500 ppm [7] | mortality at 2500 ppm [8] | mortality at 2500 ppm [9]

C#Cc1ccc(C(C#N)(C#N)Cc2ccc(C(F)(F)F)cn2)cc1 [II-33]
≥ 75%: mortality at 500 ppm [10] | mortality at 500 ppm [7]

N#CC(C#N)(Cc1ccc(C(F)(F)F)cn1)c1cc(F)cc(F)c1 [II-38]
≥ 75%: mortality at 500 ppm [1] | mortality at 300 ppm [11] | mortality at 500 ppm [2] | mortality at 2500 ppm [4] | mortality at 2500 µg/mL [5] | mortality at 300 ppm [6] | mortality at 500 ppm [7] | mortality at 2500 ppm [8] | mortality at 2500 ppm [9]

N#CC(C#N)(Cc1ccc(C(F)(F)F)cn1)c1cc(F)c(F)c(F)c1 [II-48]
≥ 75%: mortality at 500 ppm [3] | mortality at 2500 ppm [4] | mortality at 2500 µg/mL [5] | mortality at 2500 ppm [12] | mortality at 300 ppm [6] | mortality at 500 ppm [7] | mortality at 2500 ppm [8] | mortality at 2500 ppm [9]

N#CC(C#N)(Cc1ccc(C(F)(F)F)cn1)c1cccc(F)c1F [II-49]
≥ 75%: mortality at 500 ppm [3] | mortality at 300 ppm [6] | mortality at 500 ppm [7]

N#CC(C#N)(Cc1ccc(F)nc1F)c1ccc(F)cc1 [II-51]
≥ 75%: mortality at 500 ppm [10] | mortality at 500 ppm [7] | mortality at 2500 ppm [9]

CC(c1ccc(C(F)(F)F)cn1)C(C#N)(C#N)c1cc(F)c(F)c(F)c1 (stereo not shown) [II-61]
≥ 75%: mortality at 500 ppm [1] | mortality at 500 ppm [3] | mortality at 2500 ppm [4] | mortality at 2500 µg/mL [5] | mortality at 2500 ppm [12] | mortality at 300 ppm [6] | mortality at 500 ppm [7] | mortality at 2500 ppm [8] | mortality at 2500 ppm [9]

Cc1cccc(CC(C#N)(C#N)c2cc(F)c(F)c(F)c2)n1 [II-65]
≥ 75%: mortality at 500 ppm [3] | mortality at 2500 ppm [4] | mortality at 300 ppm [6] | mortality at 500 ppm [7] | mortality at 2500 ppm [9]
